The assay has as its system parasites (ring stage, in human red blood cell culture). As to the kind of experiment: Parasite LDH growth assay (antiparasite potency, Parasite Assay). It is filed as cell-based, Plasmodium falciparum. Particulars: Plasmodium falciparum, Erythrocyte, 72 h, 0.7% rings, 2% haematocrit, 72 hours at 37° C., LDH readout of parasite growth. Summed up:
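Growth was read by an LDH assay after a freeze–thaw cycle (−80 °C overnight, 4 h thaw at RT). Before that, parasites grew with compound for 72 h at 37 °C under gassed, humidified conditions. The input was a ring-stage culture adjusted to 0.7% parasitemia and 2% haematocrit in serum (5%)/albumax (0.5%)-supplemented RPMI-Hepes.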

As usually defined, the EC50 is the concentration needed to bring the measured effect to its halfway point. High values mean a less potent agent, low ones a more potent agent.

`CC[C@]1(C)CC(=O)N(C2c3cc(C(=O)N[C@@H]4c5ccccc5C[C@@]4(C)O)ccc3OCC2OC)C(=N)N1` (stereo partly drawn) [Example 179, 4-[(4R)-4-ethyl-2-imino-4-methyl-6-oxo-hexahydropyrimidin-1-yl]-N-[(1R,2R)-2-hydroxy-2-methyl-indan-1-yl]-3-methoxy-chromane-6-carboxamide]: a half-maximal response (EC50) required 65.4 nM.
The result for `CC[C@]1(C)CC(=O)N(C2c3cc(C(=O)N[C@@H]4c5ccccc5C[C@H]4O)ccc3OCC2(C)OC)C(=N)N1` (stereo partly drawn) [Example 180, 4-[(4R)-4-ethyl-2-imino-4-methyl-6-oxo-hexahydropyrimidin-1-yl]-N-[(1R,2R)-2-hydroxyindan-1-yl]-3-methoxy-3-methyl-chromane-6-carboxamide] reads 65.4 nM.
The result for `CC1(C)CC(=O)N([C@H]2c3cc(C(=O)N[C@@H]4c5ccccc5OC(C)(C)[C@H]4O)ccc3OC2(C)C)C(=N)N1` [Example 182, (3S)-N-[(3S,4R)-3-hydroxy-2,2-dimethyl-chroman-4-yl]-3-(2-imino-4,4-dimethyl-6-oxo-hexahydropyrimidin-1-yl)-2,2-dimethyl-3H-benzofuran-5-carboxamide] reads 6.1 nM; that for `COCC1(C)Oc2ccc(C(=O)N[C@@H]3c4ccccc4C[C@]3(C)O)cc2C1N1C(=N)NC(C)(C)CC1=O` (stereo partly drawn) [Example 183, N-[(1R,2S)-2-hydroxy-2-methyl-indan-1-yl]-3-(2-imino-4,4-dimethyl-6-oxo-hexahydropyrimidin-1-yl)-2-(methoxymethyl)-2-methyl-3H-benzofuran-5-carboxamide], 71.4 nM.
The result for `CC1(C)CC(=O)N([C@@H]2CCOc3ccc(C(=O)N[C@H]4c5ccccc5OC(C)(C)[C@]4(C)O)cc32)C(=N)N1` [Example 184, (4R)-N-[(3R,4S)-3-hydroxy-2,2,3-trimethyl-chroman-4-yl]-4-(2-imino-4,4-dimethyl-6-oxo-hexahydropyrimidin-1-yl)chromane-6-carboxamide] reads 105 nM; that for `COC1COc2ccc(C(=O)N[C@@H]3c4ccccc4OC[C@]3(C)O)cc2C1N1C(=N)NC(C)(C)CC1=O` (stereo partly drawn) [Example 185, N-[(3R,4R)-3-hydroxy-3-methyl-chroman-4-yl]-4-(2-imino-4,4-dimethyl-6-oxo-hexahydropyrimidin-1-yl)-3-methoxy-chromane-6-carboxamide], 50.3 nM; that for `COC1COc2ccc(C(=O)N[C@@H]3c4ccccc4OC[C@@]3(C)O)cc2C1N1C(=N)NC(C)(C)CC1=O` (stereo partly drawn) [Example 186, N-[(3S,4R)-3-hydroxy-3-methyl-chroman-4-yl]-4-(2-imino-4,4-dimethyl-6-oxo-hexahydropyrimidin-1-yl)-3-methoxy-chromane-6-carboxamide], 70 nM.
In turn, `CC1(C)CC(=O)N(C2CCS(=O)(=O)c3ccc(C(=O)N[C@@H]4c5ccccc5C[C@]4(C)O)cc32)C(=N)N1` (stereo partly drawn) [Example 187, N-[(1R,2S)-2-hydroxy-2-methyl-indan-1-yl]-4-(2-imino-4,4-dimethyl-6-oxo-hexahydropyrimidin-1-yl)-1,1-dioxo-3,4-dihydro-2H-thiochromane-6-carboxamide] registered an EC50 of 66.7 nM.
The result for `CC1(C)CC(=O)N(C2CCS(=O)(=O)c3ccc(C(=O)N[C@@H]4c5ccccc5C[C@@]4(C)O)cc32)C(=N)N1` (stereo partly drawn) [Example 188, N-[(1R,2R)-2-hydroxy-2-methyl-indan-1-yl]-4-(2-imino-4,4-dimethyl-6-oxo-hexahydropyrimidin-1-yl)-1,1-dioxo-3,4-dihydro-2H-thiochromene-6-carboxamide] reads 203 nM; that for `CC1(C)CC(=O)N([C@@H]2CCOc3ccc(C(=O)N[C@@H]4c5cc(F)ccc5OC(C)(C)[C@H]4O)cc32)C(=N)N1` [Example 189, (4R)-N-[(3S,4R)-6-fluoro-3-hydroxy-2,2-dimethyl-chroman-4-yl]-4-(2-imino-4,4-dimethyl-6-oxo-hexahydropyrimidin-1-yl)chromane-6-carboxamide], 1 nM.
For `CCC1(CC)CC(=O)N([C@@H]2CCOc3ccc(C(=O)N[C@@H]4c5cc(F)ccc5OC[C@H]4O)cc32)C(=N)N1` [Example 191, (4R)-4-(4,4-diethyl-2-imino-6-oxo-hexahydropyrimidin-1-yl)-N-[(3S,4R)-6-fluoro-3-hydroxy-chroman-4-yl]chromane-6-carboxamide] the value was 2.6 nM; for `CCC1(CC)CC(=O)N([C@@H]2CCOc3ccc(C(=O)N[C@H]4c5cc(F)ccc5OC[C@@H]4O)cc32)C(=N)N1` [Example 192, (4R)-4-(4,4-diethyl-2-imino-6-oxo-hexahydropyrimidin-1-yl)-N-[(3R,4S)-6-fluoro-3-hydroxy-chroman-4-yl]chromane-6-carboxamide], 232 nM.
For `CCC1(CC)CC(=O)N([C@@H]2CCOc3ccc(C(=O)NC(c4ccccc4)c4ccccc4)cc32)C(=N)N1` [Example 194, (4R)-N-benzhydryl-4-(4,4-diethyl-2-imino-6-oxo-hexahydropyrimidin-1-yl)chromane-6-carboxamide] the value was 0.9 nM; for `CC1(C)CC(=O)N([C@@H]2CCOc3ccc(C(=O)N[C@@H]4c5cc(Cl)ccc5OC[C@@]4(C)O)cc32)C(=N)N1` [Example 195, (4R)-N-[(3S,4R)-6-chloro-3-hydroxy-3-methyl-chroman-4-yl]-4-(2-imino-4,4-dimethyl-6-oxo-hexahydropyrimidin-1-y)chromane-6-carboxamide], 3.5 nM; for `CC[C@]1(C)CC(=O)N([C@@H]2CCOc3ccc(C(=O)N[C@@H]4c5cc(Cl)ccc5OC[C@H]4O)cc32)C(=N)N1` [Example 196, (4R)-N-[(3S,4R)-6-chloro-3-hydroxy-chroman-4-yl]-4-[(4R)-4-ethyl-2-imino-4-methyl-6-oxo-hexahydropyrimidin-1-yl]chromane-6-carboxamide], 8.6 nM.
Regarding `CCC1(CC)CC(=O)N([C@@H]2CCOc3ccc(C(=O)N[C@H]4c5ccccc5C(F)(F)[C@@H]4O)cc32)C(=N)N1` [Example 197, (4R)-4-(4,4-diethyl-2-imino-6-oxo-hexahydropyrimidin-1-yl)-N-[(1S,2R)-3,3-difluoro-2-hydroxy-indan-1-yl]chromane-6-carboxamide], a half-maximal effect (EC50) was put at 125 nM.
As to `CCC1(CC)CC(=O)N([C@@H]2CCOc3ccc(C(=O)N[C@@H]4c5ccccc5C(F)(F)[C@H]4O)cc32)C(=N)N1` [Example 198, (4R)-4-(4,4-diethyl-2-imino-6-oxo-hexahydropyrimidin-1-yl)-N-[(1R,2S)-3,3-difluoro-2-hydroxy-indan-1-yl]chromane-6-carboxamide], the response was half-maximal at 11.3 nM (EC50).
For `CC1(C)CC(=O)N([C@@H]2CC(F)(F)c3ccc(C(=O)N[C@@H]4c5ccccc5OC(C)(C)[C@H]4O)cc32)C(=N)N1` [Example 199, (3R)-1,1-difluoro-N-[(3S,4R)-3-hydroxy-2,2-dimethyl-chroman-4-yl]-3-(2-imino-4,4-dimethyl-6-oxo-hexahydropyrimidin-1-yl)indane-5-carboxamide] the value was 1.1 nM; for `CCC1(CC)CC(=O)N([C@@H]2CCOc3ccc(C(=O)NC(c4ccccc4)C4CCCCC4)cc32)C(=N)N1` (stereo partly drawn) [Example 200, (4R)-N-[cyclohexyl(phenyl)methyl]-4-(4,4-diethyl-2-imino-6-oxo-hexahydropyrimidin-1-yl)chromane-6-carboxamide], 2.9 nM.
The result for `CCC1(CC)CC(=O)N([C@@H]2CCCc3ccc(C(=O)N[C@@H]4c5ccccc5OC(C)(C)[C@H]4O)cc32)C(=N)N1` [Example 201, (4R)-4-(4,4-diethyl-2-imino-6-oxo-hexahydropyrimidin-1-yl)-N-[(3S,4R)-3-hydroxy-2,2-dimethyl-chroman-4-yl]tetralin-6-carboxamide] reads 1.4 nM.
For `CC[C@]1(C)CC(=O)N([C@H]2c3cc(C(=O)N[C@@H]4c5ccccc5C[C@@]4(C)O)ccc3OC[C@@H]2COC)C(=N)N1` [Example 202, (3S,4R)-4-[(4R)-4-ethyl-2-imino-4-methyl-6-oxo-hexahydropyrimidin-1-yl]-N-[(1R,2R)-2-hydroxy-2-methyl-indan-1-yl]-3-(methoxymethyl)chromane-6-carboxamide] the value was 0.8 nM; for `CCC1(CC)CC(=O)N([C@H]2C[C@@H](OC)c3ccc(C(=O)N[C@@H]4c5ccccc5OC[C@@]4(C)O)cc32)C(=N)N1` [Example 204, (1R,3S)-3-(4,4-diethyl-2-imino-6-oxo-hexahydropyrimidin-1-yl)-N-[(3S,4R)-3-hydroxy-3-methyl-chroman-4-yl]-1-methoxy-indane-5-carboxamide], 247 nM; for `CCC1(CC)CC(=O)N([C@@H]2C[C@H](OC)c3ccc(C(=O)N[C@@H]4c5ccccc5OC[C@@]4(C)O)cc32)C(=N)N1` [Example 205, (1S,3R)-3-(4,4-diethyl-2-imino-6-oxo-hexahydropyrimidin-1-yl)-N-[(3S,4R)-3-hydroxy-3-methyl-chroman-4-yl]-1-methoxy-indane-5-carboxamide], 2.1 nM.
The compound `COCC1(C)CC(N2C(=N)NC(C)(C)CC2=O)c2cc(C(=O)N[C@@H]3c4ccccc4C[C@]3(C)O)ccc2O1` (stereo partly drawn) [Example 206, N-[(1R,2S)-2-hydroxy-2-methyl-indan-1-yl]-4-(2-imino-4,4-dimethyl-6-oxo-hexahydropyrimidin-1-yl)-2-(methoxymethyl)-2-methyl-chromane-6-carboxamide] yielded a 50% effective concentration (EC50) of 66 nM.
On to `CCC1(CC)CC(=O)N(C2c3cc(C(=O)N[C@H]4CC(C)(C)Oc5ccccc54)ccc3OCC2O)C(=N)N1` (stereo partly drawn) [Example 207, 4-(4,4-diethyl-2-imino-6-oxo-hexahydropyrimidin-1-yl)-N-[(4S)-2,2-dimethylchroman-4-yl]-3-hydroxy-chromane-6-carboxamide], for which a half-maximal effect (EC50) was put at 22 nM.
`CCC1(CC)CC(=O)N(C2c3cc(C(=O)N[C@@H]4c5ccccc5C[C@H]4O)ccc3OCC2(C)OC)C(=N)N1` (stereo partly drawn) [Example 208, 4-(4,4-diethyl-2-imino-6-oxo-hexahydropyrimidin-1-yl)-N-[(1R,2R)-2-hydroxyindan-1-yl]-3-methoxy-3-methyl-chromane-6-carboxamide]: the EC50 came to 3.7 nM.
